Assay results: patent US9944927B2, “Therapeutic applications of p53 isoforms in regenerative medicine, aging and cancer” (The United States of America as Represented by the …, priority 2007, dated 2018)

Tests used:
Assay type in all cases: cell-based, human
miR-34a = assay: real-time qRT-PCR of miR-34a expression; conditions: for miR-34a expression at Δ133p53 knockdown-induced senescence: siRNA-transfected MRC-5 and WI-38
Method: (§1) RNA samples were prepared by using Trizol (Invitrogen). Reverse transcriptase reactions were performed using TagMan miRNA reverse transcription kit (Applied Biosystems, cat. no. 4366596) and a miR-34a-specific primer. The TagMan miRNA assay kit for miR-34a (Applied Biosystems, cat. no. 4373278) was used according to the supplier's protocol. Real-time PCR reactions were performed in triplicate. RNU66 (Applied Biosystems, cat. no. 4373382) was used as a control for quantification. Based on Ct (cycle threshold) values from miR-34a and RNU66 detections, normalized miR-34a expression was calculated by using the […] method according to the supplier's protocol (protocol no. 4310255B and User Bulletin no. 4303859B found on the world wide web at appliedbiosystems.com/index.cfm).
as §1, with “TaqMan microRNA” for “TagMan miRNA”

[1] = test system: MRC-5 and WI-38 fibroblasts; assay: cellular replicative lifespan (cumulative population doublings)
Method: (§2) For cell proliferation assay, 2.4×10^5 cells per well were plated into 12-well plates. These cells were collected and counted daily for a week using a hematocytometer. The experiments were performed at least twice and data at each time point were in triplicate. For examining cellular replicative lifespan, the number of cells was counted at each passage, and the number of population doublings (PDL) achieved between passages was determined by log2 (number of cells obtained/number of cells inoculated) (Michishita, E. et al., Mol. Biol. Cell 16:4623 (2005); Pereira-Smith, O. M. et al., Somatic Cell Genet. 7:411 (1981)). […] The incorporated BrdU was detected using an anti-BrdU monoclonal antibody (Amersham Biosciences) and observed with a fluorescent microscope. […]
as §2, with “The experiments were performed at least twice and data at each time point were in triplicate.” left out, “inoculated)^29.” for “inoculated) (Michishita, E. et al., Mol. Biol. Cell 16:4623 (2005); Pereira-Smith, O. M. et al., Somatic Cell Genet. 7:411 (1981)).”

hTERT/NHF cells = assay: Nutlin-3A-induced senescence, SA-β-gal assay; conditions: 10 μM Nutlin-3A for 72 h
caspase-3 and PARP = assay: apoptosis immunoblot of caspase-3 and PARP; conditions: for cleaved caspase-3 or PARP (apoptosis): siRNA-transfected MRC-5 and WI-38
Method: Cells or tissues were lysed in RIPA buffer [10 mM Tris-HCl, pH 7.5, 150 mM NaCl, 0.1% SDS, 0.1% sodium deoxycholate, 1 mM EDTA, 1% NP-40, complete protease inhibitors (Roche, Indianapolis, Ind.), phoshatase inhibitor cocktail 1 and 2 (Sigma-Aldrich)]. SDS-PAGE, transfer to nitrocellulose or PVDF membranes (Bio-Rad, Hercules, Calif.), incubation with antibodies, and signal detection followed the standard procedures using ECL detection (Amersham Biosciences, Piscataway, N.J.) or SuperSignal West Dura Extended Duration system (Pierce Biotechnology, Rockford, Ill.). The quantitative analysis of the immunoblot data was performed using the ImageJ 1.40 g software (on the world wide web at rsb.info.nih.gov/ij/).
A polyclonal antibody specifically recognizing Δ133p53 (MAP4) was raised at Moravian Biotechnology (Brno, Czech Republic) in rabbits injected with a mixture of peptides, MFCQLAKTC (SEQ ID NO:13) and FCQLAKTCP (SEQ ID NO: 14), which were synthesized as Multiple Antigenic Peptide by Dr. G. Bloomberg (University of Bristol, Bristol, UK). The other primary antibodies used were: TLQ40^5 for p53β; CM1^5, DO-12 (Millipore, Billerica, Mass.) and DO-1 (Santa Cruz Biotechnology, Santa Cruz, Calif.) for p53; EA10 (Carbiochem, San Diego, Calif.) for p21^WAF1; SMP14 (Santa Cruz Biotechnology) for MDM2; 8G10 (Cell Signaling Technology, Danvers, Mass.) for caspase-3; M2 monoclonal antibody (Sigma-Aldrich) for FLAG tag; AC-15 (Sigma-Aldrich) for β-actin; MAB3450 (Chemicon International, Temecula, Calif.) for HP1-γ; anti-phospho-p53 (Ser15) (Cell Signaling Technology); anti-PARP (Cell Signaling Technology); FITC-conjugated anti-CD8 (BD Biosciences, Franklin Lakes, N.J.); APC-conjugated anti-CD28 (BD Biosciences); and PE-conjugated anti-CD57 (Abcam, Cambridge, Mass.). Horseradish peroxidase-conjugated goat anti-mouse or anti-rabbit antibodies (Santa Cruz Biotechnology) were used as secondary antibodies in immunoblots.

PAI-1 = assay: real-time qRT-PCR of PAI-1 mRNA; conditions: siRNA-transfected early-passage WI-38, day 7
Text: For quantitative measurement of PAI-1 mRNA, the SYBR Green PCR Master Mix (Applied Biosystems) was used with the following primers: 5′-CTC CTG GTT CTG CCC AAG T-3′ (SEQ ID NO:15) and 5′-CAGGTTCTCTAGGGGCTTCC-3′ (SEQ ID NO:16) for PAI-1; and 5′-TTC TGG CCT GGA GGC TAT C-3′ (SEQ ID NO:17) and 5′-TCAGGAAATTTGACTTTCCATTC-3′ (SEQ ID NO:18) for β-2 microglobulin as an internal control. For IL-8 and IL-8R, the Taqman Universal PCR Master Mix (Applied Biosystems) was used with the following sets of probe and primers purchased from Applied Biosystems: IL-8 (catalog #4331182, Hs00174103_m1); IL-8R (catalog #4331182, Hs001174304_m1); and 18S endogenous control (catalog #4319413).

p21^WAF1 and MDM2 = assay: immunoblot of p53 transcriptional targets p21WAF1 and MDM2; conditions: siRNA-transfected early-passage MRC-5 and WI-38, day 7
Method: Cells were lysed in RIPA buffer [10 mM Tris-HCl, pH 7.5, 150 mM NaCl, 0.1% SDS, 0.1% sodium deoxycholate, 1 mM EDTA, 1% NP-40, complete protease inhibitors (Roche), phosphatase inhibitor cocktail 1 and 2 (Sigma)]. Lysates were separated by SDS-PAGE and transferred to nitrocellulose membranes (BIO-RAD) Immunoblot analysis was accomplished according to standard procedures using ECL detection (Amersham Bioscience) or SuperSignal West Dura Extended Duration system (PIERCE).
A polyclonal antibody specifically recognizing Δ133p53 (MAP4) was raised at Moravian Biotechnology (Brno, Czech Republic) in rabbits injected with a mixture of peptides MFCQLAKTC (SEQ ID NO:13) and FCQLAKTCP (SEQ ID NO:14), which were synthesized as Multiple Antigenic Peptide by G. Bloomberg (University of Bristol, Bristol, UK). […]
Cells or tissues were lysed in RIPA buffer [10 mM Tris-HCl, pH 7.5, 150 mM NaCl, 0.1% SDS, 0.1% sodium deoxycholate, 1 mM EDTA, 1% NP-40, complete protease inhibitors (Roche, Indianapolis, Ind.), phoshatase inhibitor cocktail 1 and 2 (Sigma-Aldrich)]. […] The quantitative analysis of the immunoblot data was performed using the ImageJ 1.40 g software (on the world wide web at rsb.info.nih.gov/ij/). […]

[2] = test system: MRC-5 and WI-38 fibroblasts; assay: BrdU incorporation assay; conditions: siRNA-transfected early-passage MRC-5 and WI-38, day 7; 10 μM BrdU 24 h
Method: as §2
as §2, with “The experiments were performed at least twice and data at each time point were in triplicate.” left out, “inoculated)^29.” for “inoculated) (Michishita, E. et al., Mol. Biol. Cell 16:4623 (2005); Pereira-Smith, O. M. et al., Somatic Cell Genet. 7:411 (1981)).”

[3] = test system: MRC-5 and WI-38 fibroblasts; assay: cellular senescence: senescent growth arrest, SA-β-gal staining; conditions: siRNA-transfected early-passage MRC-5 and WI-38, day 7

Row | Compound | cleaved caspase-3 or PARP (apoptosis) (caspase-3 and PARP) | PAI-1 expression (PAI-1) | p21^WAF1 expression (p21^WAF1 and MDM2) | BrdU incorporation [2] | miR-34a expression at Δ133p53 knockdown-induced senescence (miR-34a) | SA-β-gal activity [3] | other results
1 | COc1ccc(C2=N[C@@H](c3ccc(Cl)cc3)[C@@H](c3ccc(Cl)cc3)N2C(=O)N2CCNC(=O)C2)c(OC(C)C)c1 [Nutlin-3a, reference compound] |  |  |  |  |  |  | miR-34a expression (miR-34a; hTERT/NHF cells, p53 shRNA, or 10 μM Nutlin-3a for 36 h): induced
2 | 5′-AACAACCAGCUAAGACACUGCCA-3′ (antisense AACAACCAGCUAAGACACUGCCA; all 2'-O-methyl, backbone not given here) [antisense miR-34a] |  |  |  |  |  |  | replicative lifespan ([1]; late-passage MRC-5, antisense 40 nM transfected every 4 days): extended the replicative lifespan; extension of replicative lifespan ([1]; late-passage MRC-5 at passage 58, antisense transfected every 4 days): approximately five; miR-34a expression after antisense transfection (miR-34a; late-passage MRC-5, antisense 40 nM): downregulation of miR-34a expression was confirmed; inhibition of Nutlin-3A-induced senescence (hTERT/NHF cells): approximately 50%
3 | 5′-UGUUCACUUGUGCCCUGACUUUCAA-3′ [Δ133si-1] | No cleaved caspase-3 or PARP was observed | upregulation | upregulation of p21^WAF1 | attenuation of BrdU incorporation | not upregulated | induction of SA-β-gal activity | 
4 | 5′-CUU GUG CCC UGA CUU UCA A[dT][dT]-3′ [Δ133si-2] | No cleaved caspase-3 or PARP was observed | upregulation | upregulation of p21^WAF1 | attenuation of BrdU incorporation | not upregulated | induction of SA-β-gal activity | 
5 | COc1cccc2c1C(=O)c1c(O)c3c(c(O)c1C2=O)C[C@@](O)(C(=O)CO)C[C@@H]3O[C@H]1C[C@H](N)[C@H](O)[C@H](C)O1 [doxorubicin, reference compound] |  |  |  |  |  |  | apoptosis (caspase-3, PARP immunoblot) (caspase-3 and PARP; RKO cells, positive control): showing apoptosis
